Measurements from patent US20240197729A1, “ALK-5 Inhibitors and Uses Thereof” (Sumitomo Pharma Oncology, Inc., priority 2021, published 2024).
Like-named read-outs stand apart in the source and are kept apart here.

What was measured:
[1] = system: BMP-6/ALK2/Hepcidin pathway; assay: ALK2 off-target assay, hepcidin mRNA in HepG2 hepatocytes; format: cell-based, human; conditions: HepG2, 40 ng/ml BMP-6, 3 h; read-out: IC50, hepcidin mRNA expression
Experimental: In this study, LDN214117 (an ALK2 inhibitor available from Selleck Chemicals S7627) was included as a positive control, and vactosertib (an ALK5 inhibitor available from MedChem Express HY-19928) was included as a negative control.
HepG2 human hepatocytes (ATCC HB-8065) were seeded in EMEM (ATCC30-2003)+10% FBS in 96-well plate and allowed to grow overnight at 5% CO2 at 37° C. The next day, cells were pre-treated with selected compounds (Compound 01, 04 or 05) or one of the control compounds at various concentrations, or with vehicle (DMSO) for one hour. Cells were then stimulated with recombinant human BMP-6 (R&D Systems 507-BP-020) at a final concentration of 40 ng/ml, in the presence of test compound or DMSO for three hours. A no-BMP-6 stimulation condition was included for baseline hepcidin level measurement.
Hepcidin mRNA expression was measured by real-time RT-PCR with Cells-to-CT 1-Step TaqMan Kit (ThermoFisher A25603) following manufacturer's instructions. GAPDH levels were measured, and served as a normalization control. Hepcidin primer: TaqMan HAMP-FAM/MGB 20×(ThermoFisher 4331182); GAPDH primer: TaqMan GAPDH-VIC/MGB 20×(ThermoFisher 4326317E). Delta-delta Ct method was used to obtain relative Hepcidin expression.
The selected compounds and control compounds LDN214117 and vactosertib were tested at drug concentrations of 20 micromolar to 1.22 nanomolar at 4-fold serial dilution. All wells contained the same DMSO concentrations. IC50 values were calculated using nonlinear regression model with GraphPad Prism software. The results of the ALK-2 off-target assay are reported in Table 3B, where “++” indicates 0.1 μM<IC50≤1 μM and “+++” indicates […].

[2] = system: TGF-β1-mediated αSMA expression; conditions: human, 73 h
Experimental: (§4) To test the ability of selected compounds to inhibit the TGF-β1-dependent transition of fibroblasts to myofibroblasts in a relevant disease model of IPF, an FMT assay was performed using lung fibroblasts from IPF patients. In this assay, the transition of fibroblasts to myofibroblasts is determined by the expression of the biomarker alpha smooth muscle actin (α-SMA).
(§5) Primary human bronchial fibroblasts derived from IPF patients were seeded on day zero and the media was refreshed on day two. On day five, selected compounds or controls were added at an eight-point concentration response curve starting at 10 μM (semi-log dilutions). Each drug concentration condition was evaluated in biological duplicates. […] Seventy-two hours following TGF-beta addition, the cells were fixed with formaldehyde. High content imaging evaluating cell number using the nuclear stain DAPI as well as the expression of a-SMA was performed. The following controls were run alongside the selected compounds: vactosertib and the approved IPF drug nintedanib (at an eight-point, semi-log curve with 10 μM starting concentration). As a negative control 0.1% DMSO was also used, matching the DMSO concentration in treated wells. The following calculations were used to determine cell number as well as percent inhibition (PIN) of alpha SMA expression:
(§6) • Segmentation and quantification of αSMA immunoreactivity by an HCA algorithm, with density×area (D×A) output • Data normalization of raw αSMA (D×A) to percentage inhibition (PIN) values, on a plate-to-plate basis
(§7) • DAPI fluorescence applied for HCA-based quantification of the number of imaged cells, on a plate-to-plate basis
(§8) [formula] • μn is the average numbers of nuclei of the vehicle control (TGF-β1+0.1% DMSO) • Xi is the compound number of nuclei

[3] = system: TGF-β1-mediated αSMA expression; assay: Fibroblast to myofibroblast transformation (FMT) assay; conditions: for IC50: Homo sapiens, Fibroblast
Experimental: as §4, §5, §6, §7, §8

[4] = system: p-STAT3 (Tyr 705); assay: A549 xenograft assay, p-STAT3; format: in vivo, mice
Excerpt: (§1) To test compounds for inhibition of in vivo on-target activity (ALK5/TGF-bR1 inhibition) as well as potential Janus Kinase (JAK) signaling off-target activity, the A549 murine xenograft model was utilized. An ALK5 inhibitor (e.g., vactosertib) is expected to reduce the amount of the TGF-beta signaling molecule phospho-SMAD-2 (pSMAD2) in the A549 xenograft cells. The TGF-beta-mediated phosphorylation of SMAD2 in A549 cells takes place at amino acid residue four hundred and sixty-five and four hundred and sixty-seven (both are serine residues). A JAK inhibitor (e.g., ruxolitinib) is expected to reduce the phosphorylation of signal transducer and activator of transcription (STAT) proteins such as STAT3 at amino acid residue 705 (tyrosine).
(§2) At eight weeks of age, female athymic nude mice (purchased from Charles River) were injected with approximately 3.5 million A549 cells (ATCC, CCL-185). Specifically, cells were harvested and resuspended in plain RPMI media (no phenol red added) and Matrigel (Corning 356237) at a one to one ratio, and two hundred-microliters were injected into the right hind flank of each mouse. Tumors were measured every three days by caliper and as tumors reached an average of seventy-eighty millimeters cubed, mice were randomized in groups of three. All compounds were resuspended in 1-methyl-2-pyrrolidinone (Sigma 494496) (10%) plus 20% Solutol (Sigma 42966) in water (90%). Vactosertib and ruxolitinib were included as controls as ALK5 signaling inhibitor and JAK signaling inhibitor, respectively. Both controls were given at seventy-five milligrams per kilogram to three mice. The drug suspensions were sonicated for fifteen minutes to generate a fine particle suspension before being given to the mice. Mice were dosed (per oral gavage) with drug at one hundred, seventy-five, fifty, or ten milligrams per kilogram, with three mice per group. A vehicle control group with three mice was used to establish the baseline level of phospho-SMAD-2 in the tumor xenograft.
(§3) Four hours after drug administration, tumors were harvested, snap frozen and stored at negative eighty degrees Celsius until further processing. The phospho-SMAD-2 levels were determined using the Bio-Plex Pro™ Phospho-Smad2 (Ser465/Ser467) Set (BioRad 171V50019M). The phospho STAT3 levels were determined using the bead/antibody set from the MILLIPLEXMAP STAT Cell Signaling Magnetic Bead 5-Plex Kit (Millipore 48-610MAG). Both phospho SMAD-2 levels and phospho STAT3 levels were normalized to ß-Tubulin (MILLIPLEX MAP ß-Tubulin Total Magnetic Bead MAPmate™, Millipore 46-713MAG) or GAPDH (MILLIPLEX MAP GAPDH Total Magnetic Bead MAPmate™, Millipore 46-667MAG) levels from each sample. All analytes were analyzed in a multiplex fashion with the Bio-Plex Pro Cell Signaling Reagent Kit (BioRad 171304006M). Briefly, frozen tumor (fifteen to thirty milligrams) was lysed in 100 μl lysis buffer, processed in bead mill tube, and centrifuged. The resulting lysate was used at 1:50 dilution for the assay according to the manufacturer's instructions. Bead suspension was analyzed using the Luminex system (MAGPIX).

[5] = system: phospho-SMAD-2 (Ser465/Ser467); assay: A549 xenograft assay, p-SMAD2; format: in vivo, mice; conditions: 75 mg/kg per oral gavage, tumors 4 h after dosing
Excerpt: as §1, §2, §3

[6] = system: JAK signaling; assay: JAK selectivity assay, HEK blue IL-12 reporter; format: cell-based; conditions: 12.5 ng/ml IL-12, 24 h
Experimental: The cells were purchased from Invivogen (Catalog Nr: hkb-il12) and maintained according to vendor instructions. On the day of the experiment, cells were harvested by repeated tapping of the flask to shake loose the cells attached to the bottom of the flask. Then, cells were harvested, washed and resuspended in DMEM media supplemented with 10% fetal calf serum. 30 Microliters of cell suspension was seeded into a 384-well tissue culture-coated plate containing approximately 10,000 total cells. […] Using the ECHO “Dose Response” software, the test compound was added in duplicate wells with a 3-fold dilution curve. DMSO was back-filled to normalize the DMSO across all wells. […] After 30 minutes of incubation at room temperature, the optical density was measured at 620 nanometer using the Perkin Elmer Envision plate reader. A color change can be detected at this wavelength when secreted alkaline phosphatase, which is triggered by IL-12 signaling, is present in the supernatant. […]

`COc1cc(-c2cc(-c3ccc(N4CCNCC4)cc3)cnc2C)cc(OC)c1OC` [LDN214117, reference compound] showed an IC50 [1] of 100 to 1000 nM.

In the case of `COC(=O)c1ccc2c(c1)NC(=O)/C2=C(\Nc1ccc(N(C)C(=O)CN2CCN(C)CC2)cc1)c1ccccc1` [Nintedanib, nintedanib, reference compound], the Potentially toxic concentration [2] is reported as 5.0, the IC50 ([3]; read-out: Average IC50 (nM), average of donors IPF03, IPF06, IPF08) is reported as 833 nM and the IC50 ([3]; read-out: IC50 αSMA, donor IPF03) is reported as 600 nM. The IC50 ([3]; read-out: IC50 αSMA, donor IPF06) was 1500 nM, the IC50 ([3]; read-out: IC50 αSMA, donor IPF08) was 400 nM and the IC50 ([3]; read-out: pIC50 αSMA, donor IPF03 (converted)) was 631 nM. The IC50 ([3]; read-out: pIC50 αSMA, donor IPF06 (converted)) was 1580 nM, the IC50 ([3]; read-out: pIC50 αSMA, donor IPF08 (converted)) was 398 nM and the “Max PIN (%)” value ([3]; donor IPF03) was 90%. For the same compound, the “Max PIN (%)” value ([3]; donor IPF06) was 104% and the “Max PIN (%)” value ([3]; donor IPF08) was 94%.

With `N#CC[C@H](C1CCCC1)n1cc(-c2ncnc3[nH]ccc23)cn1` [Ruxolitinib, ruxolitinib, reference compound] the “Average % p-STAT3 (Tyr 705) of vehicle” value ([4]; 75 mg/kg per oral gavage, tumors 4 h after dosing) was 10%, the “inhibition of the phosphorylation of STAT3 in tumor samples” value ([4]; 75 milligrams per kilogram) was 90% and the “Average % p-SMAD2 (Ser 465/467) of vehicle” value [5] was 120%. It also gave an IC50 [6] of 31 nM.
